For one compound, inhibition and MIC results are on record in ChEMBL document CHEMBL1127143, “New -lactam homologs of penems” (1993).

Experiment [1] concerns actinomadura species. The experiment is described as follows: Compound was tested for percent inhibition of D,D - Carboxypeptidase from Actinomadura sp. R39 at 100 uM concentration.
Experiment [2] relates to Staphylococcus aureus. Briefly: Minimum inhibitory concentration for the antibacterial activity against Staphylococcus aureus. The format is functional.

In general, inhibition refers to the share of the control response that was lost under treatment. One may read the MIC as the least concentration at which growth counts as inhibited.

Values after ≈ are worked out from the molar mass of the structure shown.

Turning to `CCSC1=C(C(=O)O)N2C(=O)C(NC(=O)Cc3ccccc3)CC2S1` (configuration not stated), the inhibition in experiment [1] was 15%. This compound also had an MIC in experiment [2] of 320 µg/mL (≈ 845 µM).
